≈ marks a conversion by molar mass, not a printed value. Like-named read-outs stand apart in the source and are kept apart here.
What was measured:
EV-A71 [1] = assay: Post-infection assay; assay type: cell-based, Enterovirus 71 (EV-A71) strain 41 (5865/SIN/000009); conditions: added 1 h after RD cells were infected, data not shown
Description: The plaque assay was performed using the method described by Tan et al. (2012) with minor modifications. Briefly, 6 well plates with 6 × 10^5 RD cells/mL were prepared and incubated to grow overnight at 37 °C. The supernatants collected from antiviral assays were serially diluted (10-folds) and the cell monolayer was infected with each dilution. The plates were incubated at 37 °C for 1 h. After removal of the inoculum, 1.5–2 mL of 0.9% of high viscosity carboxy methyl cellulose (CMC) (Sigma Aldrich, MO, USA) with 2% FBS in DMEM (overlay media) were added to each well. After incubation for 3 days, the overlaid media was removed. The cells were washed three times with phosphate buffered saline (PBS), fixed with 3.7% formaldehyde and stained with 0.5% crystal violet. The plaques were counted manually against a white background and pictures were taken using the CTL Immunospot® S6 Versa (Cleveland, OH, USA). […]
RNA extractions were performed using the QIAamp ViralRNA mini kit (Qiagen, Hilden, Germany) according to the manufacturer’s instructions. […] The threshold cycle value (Cq) was calculated using the default setting of the machine. […]
RD cells (2 × 10^4/well) were grown overnight in wells of a 96 well plate. […] After 24 h, the supernatant was collected and infectious viral titers were quantified using the plaque assay. RNA copy number was determined using qRT-PCR [21] […]

EV-A71 [2] = assay: Time course assay for virucidal activity; assay type: cell-based, Enterovirus 71 (EV-A71) strain 41 (5865/SIN/000009); conditions: 54 μg/mL, 60 min co-incubation with EV-A71 at 37 °C, plaque assay
Description: The plaque assay was performed using the method described by Tan et al. (2012) with minor modifications. Briefly, 6 well plates with 6 × 10^5 RD cells/mL were prepared and incubated to grow overnight at 37 °C. The supernatants collected from antiviral assays were serially diluted (10-folds) and the cell monolayer was infected with each dilution. The plates were incubated at 37 °C for 1 h. […] After incubation for 3 days, the overlaid media was removed. The cells were washed three times with phosphate buffered saline (PBS), fixed with 3.7% formaldehyde and stained with 0.5% crystal violet. The plaques were counted manually against a white background and pictures were taken using the CTL Immunospot® S6 Versa (Cleveland, OH, USA). All experiments were performed as three independent replicates. RD cells (2 × 10^4/well) were grown overnight in wells of a 96 well plate. […] Cells were infected with the pre-treated virus-flavonoid-mixture and allowed to incubate with the RD cells at 37 °C for 1 h. After 1 h, the inoculum was removed, cells were washed with PBS and maintenance media was added. After 24 h, the supernatant was collected and infectious viral titers were quantified using the plaque assay.

EV-A71 [3] = assay: microbe, parasite or virus in culture; assay type: cell-based, Enterovirus 71 (EV-A71) strain 41 (5865/SIN/000009); conditions: for inhibition at 54 µg/mL: EVA71, 54 μg/mL, read-out: Inhibition of EV-A71 viral infectivity, comprehensive assay
Description: (§1) The plaque assay was performed using the method described by Tan et al. (2012) with minor modifications. Briefly, 6 well plates with 6 × 10^5 RD cells/mL were prepared and incubated to grow overnight at 37 °C. The supernatants collected from antiviral assays were serially diluted (10-folds) and the cell monolayer was infected with each dilution. The plates were incubated at 37 °C for 1 h. After removal of the inoculum, 1.5–2 mL of 0.9% of high viscosity carboxy methyl cellulose (CMC) (Sigma Aldrich, MO, USA) with 2% FBS in DMEM (overlay media) were added to each well. After incubation for 3 days, the overlaid media was removed. The cells were washed three times with phosphate buffered saline (PBS), fixed with 3.7% formaldehyde and stained with 0.5% crystal violet. The plaques were counted manually against a white background and pictures were taken using the CTL Immunospot® S6 Versa (Cleveland, OH, USA). All experiments were performed as three independent replicates.
(§2) RNA extractions were performed using the QIAamp ViralRNA mini kit (Qiagen, Hilden, Germany) according to the manufacturer’s instructions. TaqMan® Fast virus 1-step master mix (ABI, Carlsbad, Calif, USA) was used to carry out qRT-PCR in the CFX96 TouchTM Real-Time PCR Detection System (Bio-Rad, Calif, USA). The cDNA synthesis was carried out by reverse transcription for 5 min at 50 °C and subsequently amplified for 40 cycles at 95 °C for 3 s, 60 °C for 30 s. A standard graph was plotted using serial dilutions of the standard viral stock. The threshold cycle value (Cq) was calculated using the default setting of the machine. All experiments were performed in triplicates.
RD cells (2 × 10^4/well) were grown overnight in wells of a 96 well plate. A monolayer of RD cells was pre-treated with various concentrations of a flavonoid for 1 h and incubated at 37 °C. Simultaneously, the virus at MOI of 1 (pfu/ml = 2 × 10^4/0.1 mL) was pre-treated with the same concentrations of the flavonoid for 1 h at 37 °C. After incubation, flavonoid containing media was removed and the RD cells were washed with PBS. The flavonoid-treated virus was added to the pre-treated RD cells for 1 h at 37 °C. The inoculum was removed, RD cells were washed with PBS and replaced with the maintenance media (DMEM supplemented with 2% FBS). After 24 h, the supernatant was collected and infectious viral titers were quantified using the plaque assay. RNA copy number was determined using qRT-PCR [21] [Supplementary Figure S2(e)].

EV-A71 [4] = assay: microbe, parasite or virus in culture; assay type: cell-based, Enterovirus 71 (EV-A71) strain 41 (5865/SIN/000009); conditions: for inhibition at 54 µg/mL: EVA71, RD, read-out: Inhibition of EV-A71 viral infectivity, virucidal assay
Description: as §1, §2
RD cells (2 × 10^4/well) were grown overnight in wells of a 96 well plate. The virus was pre-treated with each of the flavonoids for 1 h at MOI of 1 (pfu/ml = 2 × 10^4/0.1 mL). Cells were infected with the pre-treated virus-flavonoid-mixture. The inoculum was allowed to incubate with the RD cells at 37 ° for 1 h. After 1 h, the inoculum was removed, cells were washed with PBS and maintenance media was replaced. After 24 h, the supernatant was collected and infectious viral titers were quantified using the plaque assay. RNA copy number was determined by qRT-PCR [21] [Supplementary Figure S2(a)].

EV-A71 [5] = assay: Cell protection assay (RD cells pre-treated); assay type: cell-based, Enterovirus 71 (EV-A71) strain 41 (5865/SIN/000009); conditions: 54 μg/mL; for inhibition at 54 µg/mL: Enterovirus A, EVA71, RD, read-out: Inhibition of EV-A71 viral infectivity, cell protection assay
Description: as §1, §2
RD cells (2 × 10^4/well) were seeded overnight in each well within a 96 well plate. Cells were treated with different concentrations of a flavonoid for 1 h at 37 °C. After incubation, flavonoid containing media was removed and cells were washed with PBS. […] The supernatant was collected after 24 h and the infectious viral titers were quantified using the plaque assay. RNA copy number was determined using qRT-PCR [21] […]

EV-A71 [6] = tested on: EV-A71; design: method as in Zhang et al. (2014) [27]; conditions: cells treated with 30 μM prior to EV-A71 infection; ref Zhang et al. (2014) [27]; cited from earlier work
[7] = Cytotoxicity assay (MTS) in RD cells; conditions: human, CC50 (half maximal cytotoxic concentration), 24 h, MTS assay
Description: (§3) CellTiter 96® AQueous One Solution Cell Proliferation MTS [3-(4,5-dimethylthiazol-2-yl)-5-(3-carboxymethoxyphenyl)-2-(4-sulfophenyl)-2H-tetrazolium] assay kit (Promega, Madison, WI, USA) was used to evaluate the cytotoxicity of the three flavonoids according to the manufacturer’s instruction. Briefly, RD or Vero cells were seeded overnight in 96 well plates with a density of 2 × 10^5 cells/mL. Cells were then treated with various concentrations of silymarin (6.25, 12.5, 25, 50,100 and 200 μg/mL), baicalein (1.68, 3.37, 6.75, 13.5, 27, 54 and 108, μg/mL) and baicalin (2.78, 5.57, 11.15, 22.31, 44.63 and 89.26 μg/mL) prepared in maintenance media. RD or Vero cells without test compounds served as a negative control. The plate was further incubated for 24 h at 37 °C. An aliquot of 20 μL of MTS solution was added to each well and the plate was incubated for 1 h at 37 °C. The absorbance was measured at 490 nm with an Infinite 200 Pro Multiplate Reader (Tecan, Männdedorf, Switzerland) (Supplementary Figure S1). The half-maximal cytotoxic concentration (CC50) and 10% cytotoxic concentration (CC10) for each flavonoid were determined using GraphPad Prism software, version 7 (GraphPad Software, Calif, USA).

RD cells [8] = assay: Cytotoxicity assay (MTS) in RD cells
Description: as §3

[9] = Cytotoxicity assay (MTS) in Vero cells; conditions: African green monkey, Vero cells
Description: as §3

Vero cells = assay: Cytotoxicity assay (MTS) in Vero cells
Description: as §3

RD cells [10] = tested on: RD cells; design: method as in Li et al. (2015) [16]; conditions: ref Li et al. (2015) [16]; cited from earlier work

## O=c1cc(-c2ccccc2)oc2cc(O)c(O)c(O)c12 [Baicalein]
EV-A71 [1]
  Inhibition of EV-A71 post-infection: non-inhibitory
EV-A71 [2]
  Virucidal effects against EV-A71 (time course): 60%
EV-A71 [3]
  Comprehensive Assay SI (CC50/IC50): 185.6
EV-A71 [3]; Enterovirus A, plaque assay
  inhibition at 54 µg/mL: 89.4%
EV-A71 [3]; Enterovirus A, qRT-PCR (RNA copy number)
  inhibition at 54 µg/mL: 83%
EV-A71 [3]; Enterovirus A, EVA71, plaque assay, RD cells and virus both pre-treated 1 h, read-out: Comprehensive Assay IC50
  IC50: 2.27 ± 4.93 µg/mL (≈ 8.4 µM)
EV-A71 [4]
  Virucidal Assay SI (CC50/IC50): 13.64
EV-A71 [4]; 54 μg/mL, plaque assay
  Inhibition of EV-A71 viral infectivity, virucidal assay: 65.0%
EV-A71 [4]; Enterovirus A, 54 μg/mL, plaque assay
  inhibition at 54 µg/mL: 64%
EV-A71 [4]; Enterovirus A, 54 μg/mL, qRT-PCR (RNA copy number)
  inhibition at 54 µg/mL: 78.8%
EV-A71 [4]; Enterovirus A, EVA71, plaque assay, RD cells, virus pre-treated 1 h, MOI 1, read-out: Virucidal Assay IC50
  IC50: 30.9 ± 5.5 µg/mL (≈ 114 µM)
EV-A71 [5]; plaque assay
  Inhibition of EV-A71 viral infectivity, cell protection assay: no inhibition
  inhibition at 54 µg/mL: 2.2%
EV-A71 [5]; qRT-PCR
  inhibition at 54 µg/mL: 0%
EV-A71 [6]
  Effect as a prophylactic agent against EV-A71: non-effective
[7]; extrapolated value, above the tested concentration of 108 μg/mL
  CC50 at 24 h: 421.5 ± 3.23 µg/mL (≈ 1560 µM)
RD cells [8]; 24 h, MTS assay
  CC10 (10% cytotoxic concentration): 90.93 ± 3.94 µg/mL (≈ 336 µM)
RD cells [8]; 24 h, MTS assay, listed as baicalein
  CC10 (10% cytotoxic concentration): 90.93 µg/mL (≈ 336 µM)
RD cells [8]; 24 h incubation
  Concentration up to which no significant cytotoxic effects were observed: ≤ 54 µg/mL
[9]
  CC50 at 24 h: 828.7 ± 0.93 µg/mL (≈ 3070 µM)
Vero cells; Vero cells, 24 h, MTS assay
  CC10: 148.9 ± 0.25 µg/mL (≈ 551 µM)

## O=C(O)[C@H]1O[C@@H](Oc2cc3oc(-c4ccccc4)cc(=O)c3c(O)c2O)[C@H](O)[C@@H](O)[C@@H]1O [Baicalin, reference compound]
RD cells [10]
  CC50: 823.53 µg/mL (≈ 1840 µM)
[7]
  CC50 at 24 h: 42.2 µg/mL (≈ 94.5 µM)
RD cells [8]; 24 h, MTS assay
  CC10 (10% cytotoxic concentration): 5.46 ± 5.02 µg/mL (≈ 12.2 µM)
  CC50 (half maximal cytotoxic concentration): 42.21 ± 4.15 µg/mL (≈ 94.6 µM)
RD cells [8]; 24 h, MTS assay, listed as baicalin
  CC10 (10% cytotoxic concentration): 5.46 µg/mL (≈ 12.2 µM)
[9]
  CC50 at 24 h: 30.47 ± 0.06 µg/mL (≈ 68.3 µM)
Vero cells; Vero cells, 24 h, MTS assay
  CC10: 1.718 ± 0.16 µg/mL (≈ 3.85 µM)

## Silymarin
EV-A71 [4]
  Virucidal Assay SI (CC50/IC50): 10.53
Vero cells
  CC10: 314.2 ± 0.06 µg/mL
  CC50: 753 ± 0.17 µg/mL
  Concentration up to which no significant cytotoxicity was shown: ≤ 200 µg/mL

From article PMC7092479, “Antiviral activity of silymarin in comparison with baicalein against EV-A71” (BMC Complementary Medicine and Therapies, 2020)
